Measurements from patent publication US11364225B2, “Pharmaceutical formulation for treating symptoms of migraine and cluster headaches, and method of using the same” (BN INTELLECTUAL PROPERTIES, INC., priority 2019, dated 2022).
Where two headings read alike, the source gives them in different places.

Experiments:
[1] = cited from earlier work
[2] = Treatment of migraine headache symptoms (pain phase) with an inhaled plume of particles from an active mesh nebulizer; format: in vivo, patient (adult)
Procedure: In a non-limiting example, an adult with a history of chronic migraine headaches was treated for migraine headache symptoms during the pain phase using an inhaled plume of particles from an active mesh nebulizer as described herein, and as described in U.S. patent application Ser. No. 16/836,485, titled “NEBULIZER FOR TIME-REGULATED DELIVERY”. The person was provided with an active mesh nebulizer containing a solution of sumatriptan succinate in water at 0.1996 weight % (wt %) [e.g., 4 mg sumatriptan succinate in 2 grams of water, such that (0.004 g sumatriptan succinate/2.004 g solution)*100=0.1996 wt % sumatriptan succinate] which produced a plume of particles where over 95% of the particles have individual particle diameters ranging from about 0.5 μm to about 3.0 μm. The active mesh nebulizer was configured to produce a plume of particles by nebulizing the sumatriptan succinate solution at a rate of 0.2 milliliters per minute (ml/min) for one minute, resulting in a patient dose for a first inhalation session (e.g., six 10-second inhaled plume pulses) of not more than 4 mg sumatriptan succinate.
The person had indicated in their medical history that they had regularly experienced migraine headache symptoms, at a frequency of about 3-4 episodes per week, over several months prior to the treatment.

| Compound | relief time (symptom relief) ([1]; sub-lingual delivery, according to theory and belief) [min] | migraine headache symptoms, self-evaluated after treatment ([2]; one adult with chronic migraine, inhaled, 0.1996 wt % solution in water, six 10-second plume pulses, not more than 4 mg, evaluated after waiting 5 minutes) | remission after treatment ([2]; same patient, about 3-4 episodes per week before treatment) | relief time (patient relief) ([1]; intra-nasal delivery, according to theory and belief) [min] | relief time (patient relief) ([1]; sub-cutaneous delivery, after injection) [min] |
| --- | --- | --- | --- | --- | --- |
| CN(C)CCc1c[nH]c2ccc(C[C@H]3COC(=O)N3)cc12 [zolmitriptan] | ≤ 30 | – | – | – | – |
| CNS(=O)(=O)Cc1ccc2[nH]cc(CCN(C)C)c2c1 [sumatriptan succinate] | – | completely abated | more than seven days | 30 to 60 | 60 to 90 |
